From article PMC5114273, “Activity of Scorpion Venom-Derived Antifungal Peptides against Planktonic Cells of Candida spp. and Cryptococcus neoformans and Candida albicans Biofilms” (Frontiers in Microbiology, 2016)
≈ marks a conversion by molar mass, not a printed value. Ends that are not written are not given here.

Key:
[1] = test system: peritoneal macrophages of BALB/c mice; assay: Cytotoxic test using peritoneal macrophages (LDH release); format: cell-based, mouse; details: 24 h, threshold of acceptable cytotoxicity 50% viability, three independent experiments
Description: BALB/c mice were injected with thioglycolate 72 h before peritoneal macrophages were harvested. They were diluted to a concentration of 10^6 cell/mL in RPMI-1640 supplemented with penicillin/streptomycin (100 U/mL, 100 µg/mL), 2 mM L-glutamine, 2 mM non-essential amino acids, 1 mM sodium pyruvate (all reagents from Sigma-Aldrich, St Louis, MO, USA) and 10% fetal bovine serum (FBS), and incubated in 96-well polystyrene microplates at 37°C, 5% CO2 for 24 h. The peptides were added then and cells were further incubated for 24 h as described previously ([Cruz et al., 2005]). Three independent experiments were performed. Cytotoxic activity was evaluated by the release of cytoplasmic enzyme lactate dehydrogenase due to cell lysis using the Cytotox kit (Promega). Briefly, at the end of the incubation period, supernatants were collected, the adhered cells were washed and the toxicity was determined according to the manufacturer’s protocol. The procedures were approved by the Ethics Committee on Animal Research of Institute of Biology (UnBDOC 52657/2011)/University of Brasília (UnB).

[2] = Stability assays of native and modified peptide; format: physicochemical; details: non-modified versus modified peptide
[3] = test system: C. albicans (SC5314); assay: microbe, parasite or virus in culture; format: cell-based, Candida albicans; details: Candida albicans, SC5314; RPMI-1640 pH 7.0, 2 × 10^3 cells/mL, 37°C, 24 h; complete inhibition of visible growth; at least three experiments; read-out: Minimum inhibitory concentration, C. albicans (SC5314)
From the text: (§1) Candida albicans strain SC 5314 (ATCC MYA-2876) was provided by Dr. Joshua Nosanchuk (New York, NY, USA). C. glabrata ATCC 90030, C. parapsilosis ATCC 22019, and C. tropicalis ATCC 750 were provided by Dr. Érika Kioshima (Universidade Estadual de Maringá, Paraná, Brazil). C. neoformans var. grubii strain H99 (serotype A, ATCC 208821) was provided by Dr. John Perfect (Durham, NC, USA). C. neoformans var. neoformans B3501 (serotype D, ATCC 34873) was obtained from ATCC (Manassas, VA, USA). All strains were stored as frozen stocks in 35% glycerol at -80°C. Before each experiment, all Candida spp. strains were grown in Sabouraud’s dextrose broth overnight at 30°C with agitation. C. neoformans strains were grown in the same conditions for 24 h. Fungal cells were collected by centrifugation, washed three times in phosphate buffered saline (PBS) (137 mM NaCl, 2.7 mM KCl, 10 mM Na2HPO4, 2 mM KH2PO4) and inoculated in Roswell Park Memorial Institute (RPMI) 1640 medium supplemented with L-glutamine and buffered to pH 7.0 with 165 mM 3-(N-morpholino)propanesulfonic acid for experiments described below.
(§2) In vitro antifungal assays were performed according to broth microdilution susceptibility test from Clinical and Laboratory Standards Institute (CLSI) M27-A3 guidelines with some modifications. Briefly, twofold serial dilutions of each peptide were prepared in 96-well polystyrene microplates to a final volume of 50 μL. Amphotericin B (Amp B; A2942, Sigma-Aldrich), a known antifungal drug, was used as a positive control. Final concentrations of each peptide and Amp B ranged from 100 to 0.78 μM and 16 to 0.03 μg/mL, respectively, except in tests with C. glabrata and C. parapsilosis, where the final peptide concentration ranged from 400 to 0.78 μM. In each plate, wells were included without peptide as a growth control. Then, 50 μL of the adjusted inoculum in RPMI-1640 medium were added to each well to a final concentration of 2 × 10^3 cells/mL for Candida spp. and 10^4 cells/mL for C. neoformans strains. The plates were incubated at 37°C for 24 and 48 h, respectively. The strains of C. neoformans were also incubated with shaking (200 rpm). […] The experiments were performed at least three times on separate dates.

[4] = test system: C. tropicalis (ATCC 750); assay: microbe, parasite or virus in culture; format: cell-based, Candida tropicalis; details: Candida tropicalis, ATCC750; RPMI-1640 pH 7.0, 2 × 10^3 cells/mL, 37°C, 24 h; complete inhibition of visible growth; at least three experiments; read-out: Minimum inhibitory concentration, C. tropicalis (ATCC 750)
From the text: as §1, §2

[5] = test system: C. parapsilosis (ATCC 22019); assay: microbe, parasite or virus in culture; format: cell-based, Candida parapsilosis; details: Lodderomyces parapsilosis, ATCC22019; RPMI-1640 pH 7.0, 2 × 10^3 cells/mL, 37°C, 24 h; peptides 400 to 0.78 μM; at least three experiments; read-out: Minimum inhibitory concentration, C. parapsilosis (ATCC 22019)
From the text: as §1, §2

[6] = test system: C. glabrata (ATCC 90030); assay: microbe, parasite or virus in culture; format: cell-based, Candida glabrata; details: Nakaseomyces glabratus, ATCC90030; RPMI-1640 pH 7.0, 2 × 10^3 cells/mL, 37°C, 24 h; peptides 400 to 0.78 μM; at least three experiments; read-out: Minimum inhibitory concentration, C. glabrata (ATCC 90030)
From the text: as §1, §2

[7] = test system: C. neoformans (H99 serotype A); assay: microbe, parasite or virus in culture; format: cell-based, Cryptococcus neoformans var. grubii; details: Cryptococcus neoformans; RPMI-1640 pH 7.0, 10^4 cells/mL, 37°C, 48 h, shaking 200 rpm; at least three experiments; read-out: Minimum inhibitory concentration, C. neoformans (H99 serotype A)
From the text: as §1, §2

[8] = test system: C. neoformans (B3501 serotype D); assay: microbe, parasite or virus in culture; format: cell-based, Cryptococcus neoformans var. neoformans; details: Cryptococcus neoformans; RPMI-1640 pH 7.0, 10^4 cells/mL, 37°C, 48 h, shaking 200 rpm; at least three experiments; read-out: Minimum inhibitory concentration, C. neoformans (B3501 serotype D)
From the text: as §1, §2

[9] = test system: C. albicans SC 5314 biofilm, initial cell adherence; assay: C. albicans biofilm, initial adherence (XTT reduction); format: cell-based, Candida albicans; details: at 0.25 μg/mL
Description: (§3) The effects of the peptides NDBP-4.23, ToAP1, ToAP2, and NDBP-5.7 on C. albicans biofilms were analyzed according to the protocol described by [Pierce et al. (2008)]. Briefly, C. albicans SC 5314 (10^6 cells/mL) was grown on 96-well polystyrene microplates and 4 h after seeding the peptides or Amp B were added to assess their effects on the first step of biofilm formation, the initial cell adherence. After 24 h of treatment, biofilm formation was measured by the metabolic assay based on the reduction of 2,3-bis-(2-methoxy-4-nitro-5-sulfophenyl)-2H-tetrazolium-5-carboxanilide (XTT). For the purpose of investigating effects of peptides on mature biofilms, the Candida cells were allowed to grow for 24 h prior to addition of the peptides or Amp B and the XTT assay was performed in the same way. All results were analyzed for statistical significance using analysis of variance (ANOVA) followed by Tukey post-test using GraphPad Prism 6 and expressed in terms of biofilm viability as XTT-readings percentage normalized by the control groups. Each compound was tested in triplicate and the experiments were performed at least twice on separate dates.

[10] = test system: C. albicans SC 5314 mature biofilm; assay: C. albicans mature biofilm (XTT reduction); format: cell-based, Candida albicans; details: at 2 μg/mL
Description: as §3

[11] = test system: C. albicans SC5314 biofilm; assay: Sessile MIC50 of C. albicans SC5314 biofilm (XTT reduction, supplement); format: cell-based, Candida albicans
Description: Figure 2R. Difference between supernatant volume used for OD 490nm reading (50 and 80µL) using XTT
reduce assay. The experiments were performed four times independently. Statistical analyses: two-way
ANOVA test and Turkey pos-test (**** P ≤ 0,0001; *** P ≤ 0,001; ** P ≤ 0,01; * P ≤ 0,05).
Table 1R. Sessile Minimum Inhibitory Concentration 50% (SMIC50) of C. albicans SC5314
biofilm in response to Amphotericin B serially diluted from 0,01562 to 16 µg/mL.

Compound | Concentrations showing low cytotoxicity [1] | Stability compared with the modified peptide [2] | MIC [3] | MIC [4] | MIC [5] | MIC [6] | MIC [7] | MIC [8] | Reduction in biofilm viability, initial adherence [9] | Reduction in biofilm viability, three-dimensional architecture [10] | SMIC50 ([11]; 4h biofilm, 50 µl supernatant read at OD 490nm) | SMIC50 ([11]; 4h biofilm, 80 µl supernatant read at OD 490nm) | SMIC50 ([11]; 24h biofilm, 50 µl supernatant read at OD 490nm) | SMIC50 ([11]; 24h biofilm, 80 µl supernatant read at OD 490nm) | SMIC50 ([11]; 48h biofilm, 50 µl supernatant read at OD 490nm) | SMIC50 ([11]; 48h biofilm, 80 µl supernatant read at OD 490nm)
FFGTLFKLGSKLIPGVMKLFSKKKER [ToAP2] | below 6.25 μM | lower stability |  |  |  |  |  |  |  |  |  |  |  |  |  | 
C[C@@H]1[C@H](O)[C@@H](C)/C=C/C=C/C=C/C=C/C=C/C=C/C=C/[C@H](O[C@@H]2O[C@H](C)[C@@H](O)[C@H](N)[C@@H]2O)C[C@@H]2O[C@](O)(C[C@@H](O)C[C@@H](O)[C@H](O)CC[C@@H](O)C[C@@H](O)CC(=O)O[C@H]1C)C[C@H](O)[C@H]2C(=O)O [Amp B, Amphotericin B] |  |  | 1.08 µM (≈ 0.998 µg/mL) | 2.16 µM (≈ 2 µg/mL) | 2.16 µM (≈ 2 µg/mL) | 1.08 µM (≈ 0.998 µg/mL) | 0.27 µM (≈ 0.25 µg/mL) | 0.135 µM (≈ 0.125 µg/mL) | at least 80% | at least 80% | 0,08420 ug/mL | 0,06812 ug/mL | 0,1919 ug/mL | 0,1732 ug/mL | 0,2857 ug/mL | 0,2424 ug/mL
